This is an account of results in patent US20150182675A1, “Ascorbic Acid-Eluting Implantable Medical Devices, Systems, and Related Methods” (South Dakota Board of Regents, priority 2012, published 2015).

The structures appear in SMILES notation.

Holding throughout (format): cell-based
The test system of assay [1] is endothelial cells. As to the kind of experiment: FDA staining and fluorescence microscopy of endothelial cell cultures (Example One). The conditions noted are these: for endothelial cell adhesion: 100 μg added, 15,000 cells per well, day 1; for spreading of endothelial cells: day 5. As to the method: In Example 1, […] of L-ascorbic acid, 100 μg of sirolimus, and 100 μg paclitaxel were added to separate endothelial cell cultures (15,000 cells per well). A control cell culture was also provided in which no agent was added. The endothelial cell adhesion in the culture well was investigated by staining the live cells with fluorescein diacetate (FDA). The FDA-stained live cells were then imaged using fluorescence microscopy on day one, day 3, day five, and day seven of culture. After five days, a determination of the spreading of endothelial cells was made. After seven days, a determination of growth (viability and proliferation) of endothelial cells was made.

Assay [2] has as its system endothelial cells. The experiment in a line: Resazurin fluorometric assay (Alamar Blue) of endothelial cell cultures (Example Two). The conditions noted are these: RFU, FIG. 5. Here is the method: In order to provide a quantitative characterization of the Example One results, a resazurin fluorometric assay (Alamar Blue) was used. A solution of Alamar Blue was added to the endothelial cell cultures which were already treated with ascorbic acid, sirolimus, or paclitaxel. A control lacking any therapeutic agent was included. After respective time points (1, 3, 5, and 7 days), the fluorescence of the solution was measured using a microplate reader. The collected data is provided as relative fluorescence units (RFU) vs. time for all the three groups (ascorbic acid, sirolimus, and paclitaxel) of samples.

Assay [3] deals with endothelial cells. The experiment in a line: Phase contrast microscopy of endothelial cell morphology (Example Six). The conditions noted are these: 100 μg added, day 7, phase contrast. As to the method:
In Example 6, 100 μg of L-ascorbic acid, 100 μg of sirolimus, and 100 μg paclitaxel were added to separate endothelial cell cultures. A control cell culture was also provided in which no agent was added. The effects of L-AA, SIR, and PAT on the growth of endothelial cells was investigated by taking phase contrast images of cells after 7 days using an Axiovert 200 M inverted microscopy (Carl Zeiss) in the bright field imaging mode and examining the cell morphology.

Assay [4] deals with endothelial cells. The experiment in a line: Resazurin fluorometric assay of endothelial cells, different doses of ascorbic acid (Example Seven). As to the method: (§1) In Example 7, a quantitative resazurin fluorometric assay was used. A solution of alamarBlue® from a kit purchased from Biotium Inc. (in Hayward, Calif.) was added to the endothelial cell cultures which were already treated with different doses of ascorbic acid. More specifically, the different doses of ascorbic acid included 1 μg/mL, 100 μg/mL, 300 μg/mL, 500 μg/mL, and 1000 μg/mL. A control lacking any ascorbic acid was also included. After respective time points (1, 3, 5, and 7 days), the fluorescence of the solution was measured using a microplate reader. The collected data is provided as relative fluorescence units (RFU) vs. time for all the six groups (control, 1 μg/mL, 100 μg/mL, 300 μg/mL, 500 μg/mL, and 1000 μg/mL) of samples.
On the technique in general: Alamar Blue is a resazurin reagent that responds to reducing activity.

The test system of assay [5] is smooth muscle cells. The experiment in a line: Resazurin fluorometric assay of smooth muscle cell cultures (Example Eight). The conditions noted are these: for number of smooth muscle cells in comparison to the control: day 1; for smooth muscle cell growth vs control: day 3. As to the method:
In Example 8, a quantitative resazurin fluorometric assay was used. A solution of alamarBlue® from a kit purchased from Biotium Inc. (in Hayward, Calif.) was added to the smooth muscle cell cultures which were already treated with ascorbic acid, sirolimus, or paclitaxel. A control lacking any therapeutic agent was also included. After respective time points (1, 3, 5, and 7 days), the fluorescence of the solution was measured using a microplate reader. The collected data is provided as relative fluorescence units (RFU) vs. time for all the three groups (ascorbic acid, sirolimus, and paclitaxel) of samples.

The test system of assay [6] is smooth muscle cells. As to the kind of experiment: FDA staining and fluorescence microscopy of smooth muscle cells (Example Nine). The conditions noted are these: for smooth muscle cell growth from one time point to the other: FDA staining, days 1 to 7; for confluence of smooth muscle cells: after 7 days. The text has this: Example 9 provides a qualitative characterization of the Example Eight results using flurorescence microscopy. More specifically, the growth of smooth muscle cells in the presence of three different treatments (ascorbic acid, paclitaxel, and sirolimus) was investigated by staining the live cells with fluorescein diacetate (FDA). The FDA-stained live cells were then imaged using flurorescence microscopy on day 1, day 3, day 5, and day 7 of culture. On each day, a determination of growth (viability and proliferation) of smooth muscle cells was made.

Assay [7] relates to smooth muscle cells. As to the kind of experiment: Phase contrast microscopy of smooth muscle cell morphology (Example Ten). The conditions noted are these: day 7, phase contrast. The text has this:
Example 10 provides a further qualitative characterization of the Example Eight results using phase contrast microscopy. That is, the effects of L-AA, SIR, and PAT on the growth of smooth muscle cells was investigated by taking phase contrast images of cells after 7 days using an Axiovert 200 M inverted microscopy (Carl Zeiss) in the bright field imaging mode and examining the cell morphology.

For assay [8], the system named is smooth muscle cells. The experiment in a line: Resazurin fluorometric assay of smooth muscle cells, different doses of ascorbic acid (Example Eleven). Here is the method:
as §1, with “11,” for “7,”, “smooth muscle” for “the endothelial”

The test system of assay [9] is smooth muscle cells. The experiment in a line: FDA staining and fluorescence microscopy of smooth muscle cells, different doses of ascorbic acid (Example Twelve). The conditions noted are these: for confluence of smooth muscle cells: after 7 days. The source says:
Example 12 provides a qualitative characterization of the Example Eleven results using fluorescence microscopy. More specifically, the growth of smooth muscle cells in the presence of five different doses of ascorbic acid was investigated by staining the live cells with fluorescein diacetate (FDA). The FDA-stained live cells were then imaged using fluorescence microscopy on day 1, day 3, day 5, and day 7 of culture. On each day, a determination of growth (viability and proliferation) of smooth muscle cells was made.

The mark [10] stands for this setting: days 1 to 7, doses 1 to 1000 μg.

With `O=C1O[C@H]([C@@H](O)CO)C(O)=C1O` [ascorbic acid, L-ascorbic acid], the endothelial cell adhesion result in the assay on endothelial cells [1] is “excellent”. Moreover, in the assay on endothelial cells [1] (100 μg added), the “spreading of endothelial cells” value is listed as “excellent”. Also, the “growth (viability and proliferation) of endothelial cells” value in the assay with endothelial cells [1] (100 μg added, day 7) is on record as “excellent”. Also, in the assay on endothelial cells [1] (100 μg added, day 7), the “growth of endothelial cells in comparison to the control” value is listed as “more growth in comparison to the control”. The “growth of endothelial cells relative to cells treated with paclitaxel” value in the assay with endothelial cells [2] is given as 10 fold. Further, the “growth of endothelial cells relative to cells treated with sirolimus” value in the assay with endothelial cells [2] turned out to be 19 fold. The “growth of endothelial cells relative to control (no drug)” value in the assay with endothelial cells [2] amounted to 1.6 fold. Further, the endothelial cell morphology entry in the assay on endothelial cells [3] is “spreading morphology with characteristic polygonal shape”. In addition, the “number of endothelial cells vs control” value in the assay on endothelial cells [4] (day 1, all doses (1 to 1000 μg/mL)) is reported as “no significant differences”. In addition, the “number of endothelial cells vs control and other doses” value was “significantly greater” in the assay on endothelial cells [4] (day 3, 100 μg dose); “significantly greater number of cells” with endothelial cells [4] (day 5, 100 μg dose); “significantly greater number of cells” in the assay with endothelial cells [4] (day 5, 300 μg dose); “significantly greater number of cells” in the assay with endothelial cells [4] (day 5, 500 μg dose). The “number of endothelial cells among the groups” value was “maximum number of cells” with endothelial cells [4] (day 7, 300 μg/mL dose) and “maximum number of cells” with endothelial cells [4] (day 7, 100 dose). For the same compound, the “order of viability and proliferation of endothelial cells for the different doses (increasing)” value in the assay with endothelial cells [4] (setting [10]) is 1000 μg<1 μg=control=500 μg<<300 μg=100 μg. Also, the “number of smooth muscle cells in comparison to the control” value in the assay with smooth muscle cells [5] was “significantly lesser number of cells”. Moreover, the “smooth muscle cell growth vs control” value in the assay on smooth muscle cells [5] is recorded as “significantly inhibited the cell growth”. For the same compound, the “effect on growth of SMCs (overall)” value in the assay with smooth muscle cells [5] (days 1 to 7) is “significantly inhibited growth of SMCs”. In the assay with smooth muscle cells [5] (days 1 to 7), the “order of SMC viability and proliferation (decreasing)” value is on record as “Control>>ascorbic acid>sirolimus=paclitaxel”. For the same compound, in the assay with smooth muscle cells [6], the “smooth muscle cell growth from one time point to the other” value is “significantly inhibited”. For the same compound, the “confluence of smooth muscle cells” value with smooth muscle cells [6] is 50-60%; in the assay with smooth muscle cells [9] (1 μg dose), over 90%; in the assay on smooth muscle cells [9] (100 μg dose) it was 50-60%; in the assay on smooth muscle cells [9] (300 μg dose), 50-60%; with smooth muscle cells [9] (500 μg dose) it was 30-40%; with smooth muscle cells [9] (1000 μg dose), 30-40%. Also, the “smooth muscle cell morphology and spreading” value in the assay on smooth muscle cells [7] is given as “spindle-shaped, but they were less spreading when compared to the control”. Besides, the “number of smooth muscle cells vs control and 1 μg dose” value with smooth muscle cells [8] (day 1, doses 100 to 1000 μg) was “significantly fewer cells”. The “number of smooth muscle cells vs 100 and 300 μg doses” value in the assay on smooth muscle cells [8] (day 3 (similar days 5 and 7), 500 and 1000 μg doses) is “fewer cells in comparison to the 100 and 300 μg doses”. In addition, the “order of viability and proliferation of smooth muscle cells for the different doses (decreasing)” value in the assay with smooth muscle cells [8] (setting [10]) is “control=1 μg>>100 μg=300 μg>500 μg=1000 μg”. Besides, the “inhibitory effect on smooth muscle cells” value in the assay on smooth muscle cells [9] (1 μg dose) is recorded as “no inhibitory effect”; with smooth muscle cells [9] (1000 μg dose), “maximum inhibitory effect”. Further, in the assay on smooth muscle cells [9] (doses ranging from 100 to 1000 μg, days 1 to 7), the “smooth muscle cell growth” value was “significantly inhibited”.

In the case of `CC(=O)O[C@H]1C(=O)[C@@]2(C)[C@H]([C@H](OC(=O)c3ccccc3)[C@]3(O)C[C@H](OC(=O)[C@H](O)[C@@H](NC(=O)c4ccccc4)c4ccccc4)C(C)=C1C3(C)C)[C@]1(OC(C)=O)CO[C@@H]1C[C@@H]2O` [paclitaxel], the endothelial cell adhesion result with endothelial cells [1] is “poor”. Further, the “spreading of endothelial cells” value in the assay on endothelial cells [1] (100 μg added) is “poor”. Also, in the assay on endothelial cells [1] (100 μg added, day 7), the “growth (viability and proliferation) of endothelial cells” value is given as “poor”. Further, in the assay on endothelial cells [3], the endothelial cell morphology result is listed as “uncharacteristic oval or round shape with no spreading morphology”. For the same compound, in the assay on smooth muscle cells [5], the “number of smooth muscle cells in comparison to the control” value was “significantly lesser number of cells” and the “smooth muscle cell growth vs control” value is “significantly inhibited the cell growth”. For the same compound, the “number of smooth muscle cells vs ascorbic acid treatment” value in the assay on smooth muscle cells [5] (day 5 (similar on day 7)) is “lesser numbers of cells than that of the ascorbic acid treatment”. Moreover, in the assay with smooth muscle cells [5] (days 1 to 7), the “order of SMC viability and proliferation (decreasing)” value is given as “Control>>ascorbic acid>sirolimus=paclitaxel”. Further, in the assay with smooth muscle cells [6], the “smooth muscle cell growth from one time point to the other” value is “significantly inhibited” and the “confluence of smooth muscle cells” value is recorded as “about 20%”. Further, the “smooth muscle cell morphology and spreading” value with smooth muscle cells [7] is “not spreading and only very few cells were spindle-shaped”.

Consider `CO[C@H]1C[C@@H]2CC[C@@H](C)[C@@](O)(O2)C(=O)C(=O)N2CCCC[C@H]2C(=O)O[C@H]([C@H](C)C[C@@H]2CC[C@@H](O)[C@H](OC)C2)CC(=O)[C@H](C)/C=C(\C)[C@@H](O)[C@@H](OC)C(=O)[C@H](C)C[C@H](C)/C=C/C=C/C=C/1C` [sirolimus], for which the “confluence of smooth muscle cells” value in the assay on smooth muscle cells [6] is “about 20%”.
